Data as given in article PMC5137160, “Optical imaging of MMP-12 active form in inflammation and aneurysm” (Scientific Reports, 2016).

Assays:
[1] = Stability in mouse blood by HPLC; format: in vitro ADME; conditions: 4 hours at 37 °C
Protocol: Probes 1, 2, 3 and control probe 4 were synthesized from phosphinic building blocks whose synthesis was previously reported. Briefly, the elongation of the peptide’s sequence as well as the incorporation of the phosphinic building blocks were performed on solid support using a standard Fmoc strategy. After cleavage from the support, pseudo peptide intermediates were purified and subsequently engaged in a coupling reaction with the appropriate dye-NHS ester. The identity and purity of each optical probe were confirmed by analytical HPLC, mass spectrometry analysis and NMR (for detailed protocols and analytical data see supplemental information). The stability of each probe was confirmed in phosphate buffered saline (PBS). Moreover, the stability of probe 3 and its control, probe 4 were evaluated by HPLC in mouse blood over a period of 4 hours at 37 °C.

MMP-12 active form = MMP-12 active form (Mus musculus, UniProt P34960); test: Sponge model of sterile inflammation, fluorescence imaging of explanted sponges; format: in vivo, C57BL/6 mice; parameters: from tissue; host or cells: subcutaneously implanted polyvinyl alcohol sponges in C57BL/6 mice; conditions: 60 minutes after intravenous administration, 1 nmol
Protocol: Sponge model of sterile inflammation: Pieces of polyvinyl alcohol sponge (Ivalon Ear Wick, 0.9 e × 15 mm, New London, CT) were implanted in dorsal subcutaneous pockets of C57BL/6 mice (originally from Jackson Laboratory, Farmington, CT, n = 24) under isoflurane anesthesia, as described. Animals were re-anesthetized at day 1 or 4 after sponge implantation, and the sponges were removed for imaging or embedded in OCT, snap-frozen, and stored at −80 °C for further analysis.
Fluorescent probes (one nmol in 100 μL saline) were administered through a jugular vein catheter under inhaled isoflurane anesthesia. Blood samples were collected at various time points after probe administration to monitor blood clearance. […] Near-infrared fluorescence reflectance imaging was conducted using an IVIS Spectrum system (Caliper Life Science, Hopkinton, MA) with appropriate excitation (Ex) and emission (Em) filter sets (Ex/Em = 675/720 nm for probe 1 and Ex/Em = 745/800 nm for probes 3 and 4). Fluorescence from 10 μL of blood was converted to % injected dose per gram (% ID/g) using a standard curve derived from serial dilutions of each probe in 10 μL of mouse blood. Tissue fluorescence was quantified as mean efficiency per pixel and was presented as an arbitrary unit (AU) relative to the signal from each probe in 10 μL of mouse blood.

[2] = Blood levels in apoE-/- mice; format: in vivo; conditions: mouse, whole blood, intravenous, 1 nmol, read-out: Blood level
Protocol: Fluorescent probes (one nmol in 100 μL saline) were administered through a jugular vein catheter under inhaled isoflurane anesthesia. Blood samples were collected at various time points after probe administration to monitor blood clearance. Animals were sacrificed at the indicated time points and various organs were harvested. Near-infrared fluorescence reflectance imaging was conducted using an IVIS Spectrum system (Caliper Life Science, Hopkinton, MA) with appropriate excitation (Ex) and emission (Em) filter sets (Ex/Em = 675/720 nm for probe 1 and Ex/Em = 745/800 nm for probes 3 and 4). Fluorescence from 10 μL of blood was converted to % injected dose per gram (% ID/g) using a standard curve derived from serial dilutions of each probe in 10 μL of mouse blood. Tissue fluorescence was quantified as mean efficiency per pixel and was presented as an arbitrary unit (AU) relative to the signal from each probe in 10 μL of mouse blood.

hMMP-13 = target: T1, hMMP-13 (Homo sapiens, UniProt P45452); test: MMP inhibition assay (Ki); format: biochemical
T1 construct: made in house
Protocol: (§1) Human MMP-8, -9, -12 and -13 were produced in the laboratory. Other MMPs were purchased from R&D Systems (Minneapolis, MN). MMP inhibition assays were carried out as previously described. Pro-MMPs were pre-activated by p-aminophenylmercuric acetate following the method described by R&D Systems. Titration experiments were carried out to determine active enzyme concentration for each MMP prior to the assay. For each probe, the percentage of inhibition was determined from five different concentrations in triplicates, chosen to reach a range of 20–80% inhibition. Ki values were determined using the method proposed by Horovitz and Leviski[45].

hMMP-3 = target: T2, hMMP-3 (Homo sapiens, UniProt P08254); test: MMP inhibition assay (Ki); format: biochemical
T2 construct: purchased R&D Systems (Minneapolis, MN)
Protocol: as §1

hMMP-9 = target: T3, hMMP-9 (Homo sapiens, UniProt P14780); test: MMP inhibition assay (Ki); format: biochemical
T3 construct: made in house
Protocol: as §1

hMMP-2 = target: T4, hMMP-2 (Homo sapiens, UniProt P08253); test: MMP inhibition assay (Ki); format: biochemical
T4 construct: purchased R&D Systems (Minneapolis, MN)
T4 sequence (P08253 110-660): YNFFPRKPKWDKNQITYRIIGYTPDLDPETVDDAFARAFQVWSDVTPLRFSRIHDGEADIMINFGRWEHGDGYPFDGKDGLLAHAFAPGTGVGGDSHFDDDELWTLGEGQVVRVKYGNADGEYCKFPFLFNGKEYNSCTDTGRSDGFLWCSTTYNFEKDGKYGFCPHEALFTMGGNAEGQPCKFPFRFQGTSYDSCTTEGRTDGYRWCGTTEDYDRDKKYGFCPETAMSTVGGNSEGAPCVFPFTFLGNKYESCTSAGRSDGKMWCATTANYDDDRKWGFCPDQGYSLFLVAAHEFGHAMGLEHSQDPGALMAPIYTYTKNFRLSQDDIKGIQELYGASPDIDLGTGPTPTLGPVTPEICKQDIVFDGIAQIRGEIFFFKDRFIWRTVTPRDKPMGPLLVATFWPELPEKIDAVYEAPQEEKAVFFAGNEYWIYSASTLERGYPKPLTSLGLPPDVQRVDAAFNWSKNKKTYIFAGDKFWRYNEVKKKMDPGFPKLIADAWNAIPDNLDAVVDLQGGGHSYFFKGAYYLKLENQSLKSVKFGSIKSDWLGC
Protocol: as §1

hMMP-8 = target: T5, hMMP-8 (Homo sapiens, UniProt P22894); test: MMP inhibition assay (Ki); format: biochemical
T5 construct: made in house
Protocol: as §1

hMMP-14 = target: T6, hMMP-14 (Homo sapiens, UniProt P50281); test: MMP inhibition assay (Ki); format: biochemical
T6 construct: purchased R&D Systems (Minneapolis, MN)
Protocol: as §1

hMMP-1 = target: T7, hMMP-1 (Homo sapiens, UniProt P03956); test: MMP inhibition assay (Ki); format: biochemical
T7 construct: purchased R&D Systems (Minneapolis, MN)
T7 sequence (P03956 100-469): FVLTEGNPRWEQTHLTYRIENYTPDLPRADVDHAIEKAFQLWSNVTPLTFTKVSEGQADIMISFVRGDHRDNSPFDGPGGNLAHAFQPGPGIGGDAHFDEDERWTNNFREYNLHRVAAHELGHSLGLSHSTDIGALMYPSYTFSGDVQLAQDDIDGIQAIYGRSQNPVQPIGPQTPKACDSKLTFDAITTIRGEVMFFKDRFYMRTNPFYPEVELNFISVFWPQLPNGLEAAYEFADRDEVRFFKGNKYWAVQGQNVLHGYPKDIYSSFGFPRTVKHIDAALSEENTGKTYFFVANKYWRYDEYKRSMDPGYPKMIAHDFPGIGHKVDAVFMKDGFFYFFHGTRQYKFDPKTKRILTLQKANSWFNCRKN
Protocol: as §1

hMMP-7 = target: T8, hMMP-7 (Homo sapiens, UniProt P09237); test: MMP inhibition assay (Ki); format: biochemical
T8 construct: purchased R&D Systems (Minneapolis, MN)
T8 sequence (P09237 95-267): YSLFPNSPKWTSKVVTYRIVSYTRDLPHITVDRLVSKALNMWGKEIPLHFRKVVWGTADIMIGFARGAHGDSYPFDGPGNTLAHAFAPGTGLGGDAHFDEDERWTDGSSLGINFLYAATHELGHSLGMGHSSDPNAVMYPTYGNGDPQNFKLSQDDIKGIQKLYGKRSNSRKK
Protocol: as §1

hMMP-10 = target: T9, hMMP-10 (Homo sapiens, UniProt P09238); test: MMP inhibition assay (Ki); format: biochemical
T9 construct: purchased R&D Systems (Minneapolis, MN)
Protocol: as §1

T3 sequence (P14780 94-707): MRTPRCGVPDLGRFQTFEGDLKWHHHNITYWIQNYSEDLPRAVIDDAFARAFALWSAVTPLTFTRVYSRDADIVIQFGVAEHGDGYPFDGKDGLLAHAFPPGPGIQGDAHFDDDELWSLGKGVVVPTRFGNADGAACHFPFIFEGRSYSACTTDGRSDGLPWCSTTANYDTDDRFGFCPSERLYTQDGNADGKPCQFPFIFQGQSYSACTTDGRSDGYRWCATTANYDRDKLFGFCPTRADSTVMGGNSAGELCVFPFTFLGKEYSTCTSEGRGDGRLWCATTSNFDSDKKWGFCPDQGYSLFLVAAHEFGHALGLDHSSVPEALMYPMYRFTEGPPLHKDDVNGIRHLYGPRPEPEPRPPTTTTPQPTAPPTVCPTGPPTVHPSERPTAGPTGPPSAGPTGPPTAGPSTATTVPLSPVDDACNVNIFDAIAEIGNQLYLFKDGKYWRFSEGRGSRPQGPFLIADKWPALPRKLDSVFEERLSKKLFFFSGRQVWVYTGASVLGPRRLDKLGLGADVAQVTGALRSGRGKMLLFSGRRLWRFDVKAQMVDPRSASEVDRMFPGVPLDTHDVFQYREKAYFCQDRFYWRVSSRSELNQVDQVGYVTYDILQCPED
Sequence of MMP-12 active form (P34960 110-473): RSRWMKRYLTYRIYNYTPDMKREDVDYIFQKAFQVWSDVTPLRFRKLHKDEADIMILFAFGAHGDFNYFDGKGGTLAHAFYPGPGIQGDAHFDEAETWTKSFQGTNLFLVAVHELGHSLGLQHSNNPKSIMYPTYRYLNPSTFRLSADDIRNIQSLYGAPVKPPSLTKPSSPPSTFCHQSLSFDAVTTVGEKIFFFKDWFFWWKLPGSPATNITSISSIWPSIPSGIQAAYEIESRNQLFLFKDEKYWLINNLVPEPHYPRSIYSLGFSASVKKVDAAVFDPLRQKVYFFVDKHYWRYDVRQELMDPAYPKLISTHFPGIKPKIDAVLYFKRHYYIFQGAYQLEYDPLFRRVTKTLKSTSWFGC
T5 sequence (P22894 101-467): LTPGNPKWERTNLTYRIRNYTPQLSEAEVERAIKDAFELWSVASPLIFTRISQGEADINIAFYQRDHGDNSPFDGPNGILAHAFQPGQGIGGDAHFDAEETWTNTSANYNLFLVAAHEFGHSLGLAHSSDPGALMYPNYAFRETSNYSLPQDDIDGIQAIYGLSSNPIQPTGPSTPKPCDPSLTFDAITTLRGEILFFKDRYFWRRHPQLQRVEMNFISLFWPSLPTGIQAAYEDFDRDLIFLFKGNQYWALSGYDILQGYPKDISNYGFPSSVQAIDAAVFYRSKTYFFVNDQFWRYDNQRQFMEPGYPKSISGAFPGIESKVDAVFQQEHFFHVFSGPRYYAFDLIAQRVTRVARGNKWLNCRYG
T2 sequence (P08254 100-477): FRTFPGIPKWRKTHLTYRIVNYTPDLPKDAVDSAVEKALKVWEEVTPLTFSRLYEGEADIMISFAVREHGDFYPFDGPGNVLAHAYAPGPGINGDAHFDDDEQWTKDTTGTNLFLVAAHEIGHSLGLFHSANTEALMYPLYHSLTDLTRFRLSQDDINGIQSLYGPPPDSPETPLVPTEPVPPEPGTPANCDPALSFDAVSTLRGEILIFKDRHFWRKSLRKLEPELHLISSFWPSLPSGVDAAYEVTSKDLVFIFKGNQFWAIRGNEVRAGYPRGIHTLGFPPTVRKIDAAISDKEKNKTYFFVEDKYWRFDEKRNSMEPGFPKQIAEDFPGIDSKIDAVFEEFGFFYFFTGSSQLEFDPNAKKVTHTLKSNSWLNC
T9 sequence (P09238 99-476): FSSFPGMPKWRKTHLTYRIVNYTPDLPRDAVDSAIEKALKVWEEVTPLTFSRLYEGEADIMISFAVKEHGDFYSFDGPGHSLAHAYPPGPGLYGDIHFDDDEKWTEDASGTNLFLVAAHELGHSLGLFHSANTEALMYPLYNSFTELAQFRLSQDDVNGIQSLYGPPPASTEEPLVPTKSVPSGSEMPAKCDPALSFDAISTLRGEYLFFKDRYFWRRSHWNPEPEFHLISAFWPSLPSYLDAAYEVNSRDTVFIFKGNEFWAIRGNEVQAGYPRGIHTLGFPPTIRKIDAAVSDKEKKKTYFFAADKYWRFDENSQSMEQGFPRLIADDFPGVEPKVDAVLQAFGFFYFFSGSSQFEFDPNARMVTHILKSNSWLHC

For `CC1(C)C(/C=C/C2=C(Oc3ccc(CCC(=O)NCCCOCCOCCOCCCNC(=O)[C@H](CCC(=O)[O-])NC(=O)[C@H](CCC(=O)O)NC(=O)[C@H](Cc4cc(-c5ccc(-c6cccc(Cl)c6)cc5)no4)CP(=O)(O)c4ccc(Br)cc4)cc3)C(=C/C=C3/N(CCC[N+](C)(C)C)c4ccc(S(=O)(=O)[O-])cc4C3(C)C)/CCC2)=[N+](CCC[N+](C)(C)C)c2ccc(S(=O)(=O)[O-])cc21` [probe 3], the “stability in mouse blood” value [1] was “fully stable”, the “fluorescence signal in explanted sponges” value (MMP-12 active form) was “intense signal” and the tissue uptake at 30 min [2] was 2.7 ± 0.1 %ID/g. For the same compound, the tissue uptake at 60 min [2] was 2.3 ± 0.3 %ID/g, the Ki (hMMP-13) was 0.124 ± 0.007 µM and the Ki (hMMP-3) was 0.367 ± 0.061 µM. The Ki (hMMP-9) was 4.79 ± 0.535 µM, the Ki (hMMP-2) was 2.13 ± 0.172 µM and the Ki (hMMP-8) was 3.31 ± 0.348 µM. For the same compound, the Ki (hMMP-14) was 1.02 ± 0.069 µM, the Ki (hMMP-1) was greater than 10 µM and the Ki (hMMP-7) was 4.99 ± 0.151 µM. For the same compound, the Ki (hMMP-10) was 0.136 ± 0.022 µM.

With `CC1(C)C(=CC=C2CCCC(C=CC3=[N+](CCC[N+](C)(C)C)c4ccc(S(=O)(=O)[O-])cc4C3(C)C)=C2Oc2ccc(CCC(=O)NCCCOCCOCCOCCCNC(=O)C(CCC(=O)[O-])NC(=O)C(CCC(=O)O)NC(=O)C(Cc3cc(-c4cccc(Oc5ccccc5)c4)no3)CP(=O)(O)c3ccc(Br)cc3)cc2)N(CCC[N+](C)(C)C)c2ccc(S(=O)(=O)[O-])cc21` (centres unmarked) [probe 4] the “stability in mouse blood” value [1] was “stable”, the “fluorescence signal in explanted sponges” value (MMP-12 active form) was “significantly lower” and the tissue uptake at 30 min [2] was 2.4 ± 0.3 %ID/g. For the same compound, the tissue uptake at 60 min [2] was 2 ± 0.2 %ID/g, the Ki (hMMP-13) was 7.73 ± 1.53 µM and the Ki (hMMP-3) was greater than 12 µM. The Ki (hMMP-9) was 4.9 ± 1.3 µM, the Ki (hMMP-2) was greater than 12 µM and the Ki (hMMP-8) was 7.5 ± 0.73 µM. It also gave a Ki (hMMP-14) of 7.86 ± 1.53 µM, a Ki (hMMP-1) greater than 10 µM and a Ki (hMMP-7) of 9.8 ± 0.32 µM. It also gave a Ki (hMMP-10) of 6.43 ± 1.67 µM.
